Measured values published in patent US11439657B2, “Cancer stem cell growth inhibitor using miRNA” (CancerStem Tech Inc., priority 2017, dated 2022).
Entries after “also recorded” stand apart in the source; their conditions may differ.

Columns and labels:
[1] = test system: solid tumor from the cancer stem cell population (ZsGreen+); test: Mouse subcutaneous solid tumor model test; assay type: in vivo, BALB/cA nude mice
Procedure: In 100 ml of distilled water, 0.37 g of NaHCO3, 90 μl of NaH2PO4.2H2O (1M) and 180 μl of CaCl2 (1 M) were added in this order and dissolved, and the pH was adjusted to 7.5 with 1N HCl. This was filtered through 0.2 μm diameter filter. Per 1 ml of the resultant buffer, 2 μg of miRNA and 4 μl of CaCl2 (1 M) were mixed and incubated in a water bath at 37° C. for 30 minutes. Then, spin down was performed at 15000 rpm×5 minutes. The resultant pellet was dispersed in physiological saline (containing 0.5 wt % albumin). Accordingly, a dispersion of composite particles containing the miRNA in carbonate apatite particles was obtained. The resultant dispersion was subjected to ultrasonic vibration treatment for 10 minutes just prior to testing. Note that the ultrasonic vibration treatment was performed for 10 minutes using a water bath with an ultrasonic vibration function, in which the dispersion contained in a plastic container was floated on water set to 20° C., under conditions of high frequency output of 55 W and oscillation frequency of 38 kHz. The preparation obtained in this way was immediately used for the tests described below.
Note that it is confirmed in the measurement using a scanning probe microscope that the dispersion of ultrasonic vibration treatment includes composite particles composed of carbonate apatite nanoparticles containing the miRNA having an average particle diameter of 50 nm or less. It is also confirmed that the resultant composite particles contain about 20 μg of the miRNA per 1 mg of carbonate apatite.
The cancer stem cell population (ZsGreen+) obtained in Test Example 1 was subcutaneously injected at 5×10^5 cells to the left and right backs of 6 to 8 weeks age BALB/cA nude mice (manufactured by CLEA Japan, Inc.) to produce solid tumor model mice. When the tumor reached about 20 mm^3 in size, the mice were randomly divided into an hsa-miR-136-5p administration group (hsa-miR-136-5p), an untreated group, and a negative control group (control miRNA). In the hsa-miR-136-5p administration group, the day at which the tumor reached about 20 mm^3 in size was 0th day. On the 0th, 3rd, 5th, 7th, 10th, 12th, 14th, 17th and 19th days, carbonate apatite nanoparticles containing the hsa-miR-136-5p were intravenously injected into the tail vein at 40 μg/dose in terms of the amount of hsa-miR-136-5p. In the negative control group, carbonate apatite nanoparticles containing a control miRNA (SEQ ID NO: 9) were intravenously injected into the tail vein at the same schedule and dose as those for the miRNA136-5p administration group. In the untreated group, no drug was administered. During the test period, the tumor volume on the back of the mouse (longer diameter×shorter diameter×shorter diameter×1/2) was measured over time, and on the 24th day, the tumor was excised from the mice and observed for size, and its weight was measured.
A mouse subcutaneous solid tumor model test was conducted in the same manner as in Test Example 2 except that hsa-miR-3065-3p was used in place of hsa-miR-136-5p.
A mouse subcutaneous solid tumor model test was conducted in the same manner as in Test Example 2 except that hsa-miR-181-5p was used in place of hsa-miR-136-5p.

[2] = test system: human pancreatic cancer cells (Bxpc3 line); test: Antitumor effect on human pancreatic cancer cells (1), cell count after transfection; assay type: cell-based; settings: 10 pmol/well, FIG. 8; for antitumor effect: 48 hours, positive control hsa-miR-34a; for proliferation inhibitory effect on pancreatic cancer cells: cells counted 48 hours later
Procedure: (§1) A cell suspension prepared by suspending human pancreatic cancer cells (Bxpc3 line) in D-MEM medium (containing 10% by volume FBS) was seeded in each well of a 24-well plate at 3×10^3 cells/well, followed by culture at 37° C. overnight. Thereafter, according to the lipofectamin 2000 protocol, each miRNA was transfected at 10 pmol/well, and 48 hours later, the cells were counted. In addition, tests were also conducted under the same condition on a case where the miRNA was not introduced (untreated group), a case where hsa-miR-34a (SEQ ID NO: 8) was used (positive control) in place of the miRNA, and a case where a control miRNA (SEQ ID NO: 9) was used (control miRNA, negative control) in place of the selected miRNA.

[3] = test system: human pancreatic cancer cells (PSN-1 line); test: Antitumor effect on human pancreatic cancer cells (2), cell count after transfection; assay type: cell-based; settings: 10 pmol/well, 48 hours, FIG. 9
Procedure: as §1
As to hsa-miR-136-5p, hsa-miR-3065-3p and hsa-miR-181a-5p, evaluation was performed of the antitumor effect on human pancreatic cancer cells. The specific test method is the same as that for Test Example 4 except that a PSN-1 line was used as human pancreatic cancer cells.

[4] = test system: human large bowel cancer cells (DLD1 line); test: Antitumor effect on human large bowel cancer cells, cell count after transfection; assay type: cell-based; settings: 10 pmol/well, FIG. 11; for antitumor effect: 72 hours, positive control hsa-miR-34a; for proliferation inhibitory effect on large bowel cancer cells: cells counted 72 hours after transfection
Procedure: as §1
As to hsa-miR-136-5p, hsa-miR-3065-3p, hsa-miR-4727-5p, hsa-miR-378g, hsa-miR-181a-5p, hsa-miR-362-5p and hsa-miR-608, evaluation was performed of the antitumor effect on human large bowel cancer cells. The specific test method is the same as that for Test Example 4 except that human large bowel cancer cells (DLD1 line) were used as cancer cells, and that the cells were counted 72 hours after transfection.

| Substance | tumor excised on the 24th day (size and weight) as compared to the untreated group and the negative control group ([1]; 24th day, carbonate apatite nanoparticles, 40 μg/dose i.v., FIGS. 5b and 5c) | tumor volume as compared to the untreated group and the negative control group ([1]; after the 7th day, carbonate apatite nanoparticles, 40 μg/dose i.v., FIG. 5a) | antitumor effect as compared to the untreated group and the negative control group (control miRNA) ([1]; carbonate apatite nanoparticles containing the miRNA, 40 μg/dose, tail vein i.v., days 0-19, tumor excised on the 24th day) | antitumor effect [2] | proliferation inhibitory effect on pancreatic cancer cells [2] | antitumor effect [3] | proliferation inhibitory effect on pancreatic cancer cells [3] | antitumor effect [4] | proliferation inhibitory effect on large bowel cancer cells [4] | tumor volume as compared to the untreated group and the negative control group ([1]; from the 17th day, carbonate apatite nanoparticles, 40 μg/dose i.v., FIG. 6) |
| --- | --- | --- | --- | --- | --- | --- | --- | --- | --- | --- |
| hsa-miR-136-5p: human-derived miR-136-5p; base sequence set forth in SEQ ID NO: 1 as mature miRNA (ACUCCAUUUGUUUUGAUGAUGGA; listed as RNA, chemistry not given here; listed as Homo sapiens) | significantly smaller | significantly smaller tumor volume | remarkably higher antitumor effect | much better antitumor effect than that of hsa-miR-34a; also recorded: particularly remarkable antitumor effect | strong proliferation inhibitory effect | particularly remarkable antitumor effect | strong proliferation inhibitory effect | much better antitumor effect than that of hsa-miR-34a; also recorded: particularly remarkable antitumor effect | strong proliferation inhibitory effect | – |
| hsa-miR-3065-3p: human-derived miR-3065-3p; base sequence set forth in SEQ ID NO: 2 as mature miRNA (UCAGCACCAGGAUAUUGUUGGAG; listed as RNA, chemistry not given here; listed as Homo sapiens) | – | – | – | much better antitumor effect than that of hsa-miR-34a | strong proliferation inhibitory effect | – | strong proliferation inhibitory effect | much better antitumor effect than that of hsa-miR-34a; also recorded: particularly remarkable antitumor effect | strong proliferation inhibitory effect | significantly reduced |
